The source made the active and inactive calls. The rule behind the calls is not given here.
Assays:
[1] = system: P388; experiment: Cytotoxicity against mouse P388 cells by MTT colorimetric method; type: functional
[2] = system: Platelet; experiment: Inhibition of thrombin-induced rabbit washed platelets aggregation by turbidimetric method; type: functional, Oryctolagus cuniculus

Structure (SMILES) | Activity [1] | Activity [2]
C/C1=C\C=C(\C(C)C)CC/C(C(=O)O)=C\CC/C(C)=C/CC1 [NEOCROTOCEMBRANEIC ACID] | 41.47 µg/mL | 
C/C1=C\C=C(\C(C)C)CC/C(C=O)=C\CC/C(C)=C/CC1 [NEOCROTOCEMBRANAL] | 6.48 µg/mL | 47.21 µg/mL
C/C1=C\CC/C(C)=C/C=C(/C(C)C)CC/C(C(=O)O)=C/CC1 | inactive | 

Source: ChEMBL document CHEMBL1144093, “Neocrotocembranal from Croton oblongifolius” (1999)
